Reference: patent US10851102B2, “Imidazole and triazole containing bicyclic compounds as JAK inhibitors” (THERAVANCE BIOPHARMA R&D IP, LLC, priority 2019, dated 2020)

Columns and labels:
JAK1 = JAK1 (Homo sapiens (Human), UniProt P23458); test: Biochemical JAK and Tyk2 kinase assays (LanthaScreen): JAK1; conditions: 1 h pre-incubation, ATP at Km; pIC50 converted to pKi by Cheng-Prusoff
Procedure, shortened: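 LanthaScreen format using GST-tagged JAK enzymes, 1 h compound preincubation and 1 h ATP-initiated reaction at ambient temperature, in pH 7.5 HEPES buffer with 1% DMSO. Values are Cheng-Prusoff pKi.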

[1] = tested on: IL-2 stimulated pSTAT5 in CD4+ T cells isolated from murine splenocytes (JAK3); test: Inhibition of IL-2 stimulated pSTAT5 in CD4+ T cells isolated from murine splenocytes; assay type: cell-based; conditions: Mus musculus, IL-2 7 ng/ml, read-out: pIC50, inhibition of IL-2 stimulated pSTAT5 (converted)
Experimental: Assay 3: Inhibition of IL-2 Stimulated pSTAT5 in CD4+ T Cells Isolated from Murine Splenocytes
The potency of test compounds for inhibition of interleukin-2 (IL-2) stimulated STATS phosphorylation was measured in the CD4+ T cells isolated from murine splenocytes using AlphaLisa. Because IL-2 signals through JAK3, this assay provides a measure of JAK3 cellular potency in mouse.
Phosphorylated STATS was measured via the AlphaLISA SureFire Ultra pSTAT5 (Tyr694/699) kit (PerkinElmer).
CD4+ T cells were isolated from murine splenocytes via negative selection on a magnetic column (Miltnyi Biotec) and re-suspended in assay media (phenol red-free DMEM (Life Technologies) supplemented with 10% FBS (ATCC)). Cells were seeded at 50,000 cells/well in assay media (2 μL/well). Compounds were serially diluted in DMSO and diluted to 2× final concentration in assay media. Compound was added (4 μl/well) and the cells incubated at 37° C., 5% CO2 for 1 hour, followed by the addition of IL-2 (R&D Systems; final concentration 7 ng/ml) in pre-warmed assay media (2 μL) for 30 minutes. After cytokine stimulation, cells were lysed with 2 μl of 5× AlphaLisa Lysis Buffer (PerkinElmer). The lysate was shaken at 900 rpm for 10 minutes at room temperature (RT). Phosphorylated STATS was measured via the pSTAT5 AlphaLisa kit (PerkinElmer). Freshly prepared acceptor bead mixture was dispensed onto lysate (5 ul) under green filtered <100 lux light. Plates were shaken at 900 rpm for 2 mins, briefly spun down, and incubated for 2 hrs at RT in the dark. Donor beads were dispensed (5 μl) under green filtered <100 lux light. Plates were shaken at 900 rpm for 2 mins, briefly spun down, and incubated overnight at RT in the dark. Luminescence was measured with excitation at 689 nm and emission at 570 nm using an EnVision plate reader (PerkinElmer) under green filtered <100 lux light.
To determine the inhibitory potency of test compounds in response to IL-2, the average emission intensity of beads bound to pSTATS was measured in primary CD4+ T cells isolated from murine splenocytes. IC50 values were determined from analysis of the inhibition curves of signal intensity vs compound concentration. Data are expressed as pIC50 (negative decadic logarithm IC50) values (mean±standard deviation).

[2] = Colon and plasma mouse pharmacokinetics; assay type: in vivo; conditions: mouse; ratio of colon AUC to plasma AUC; male Balb/c mice, 10 mg/kg PO
Experimental: Assay 6: Colon and Plasma Mouse Pharmacokinetics
6 male Balb/c mice were administered 10 mg/kg of compound in 1% HPMC+0.1% Tween-80 by PO administration. At 0.5, 2 and 6 hours after dose administration, animals were anesthetized, and terminal blood samples were collected by cardiac puncture, followed by collection of colon contents and colon tissue.
Blood samples were collected into K2EDTA and stored on wet ice until processed to plasma by centrifugation (12,000 rpm at 4° C.). Plasma samples were transferred to cluster tubes and placed on dry ice prior to freezer storage. The colon contents from each animal were collected at each terminal blood collection time point. The colon tissues were flushed with saline and patted dry. The colon and colon content tissues were homogenized using sterile water containing 0.1% formic acid 9:1 (water:tissue, v/w). The homogenized tissues and colon contents were transferred to cluster tubes and placed on dry ice prior to freezer storage. All samples were analyzed using LC/MS/MS against analytical standards.
The composite pharmacokinetic parameters of the compounds were determined by non-compartmental analysis using Phoenix WinNonlin Version 6 (Certara, St. Louis, Mo.) and using mean values from 2 animals/time point. For plasma concentrations below the quantification limit (BQL), the lowest concentration measurable or the BLOQ (below limit of quantification) was used.
A colon to plasma ratio was determined as the ratio of the colon AUC to the plasma AUC.

Caco-2 cell monolayers = test: Caco-2 permeation assay; assay type: in vitro ADME, human; conditions: 5 μM, A to B, + Verapamil 25 μM, 120 minutes
Excerpt: Assay 5: Caco-2 Permeation Assay

JAK1, sequence (P23458 whole entry): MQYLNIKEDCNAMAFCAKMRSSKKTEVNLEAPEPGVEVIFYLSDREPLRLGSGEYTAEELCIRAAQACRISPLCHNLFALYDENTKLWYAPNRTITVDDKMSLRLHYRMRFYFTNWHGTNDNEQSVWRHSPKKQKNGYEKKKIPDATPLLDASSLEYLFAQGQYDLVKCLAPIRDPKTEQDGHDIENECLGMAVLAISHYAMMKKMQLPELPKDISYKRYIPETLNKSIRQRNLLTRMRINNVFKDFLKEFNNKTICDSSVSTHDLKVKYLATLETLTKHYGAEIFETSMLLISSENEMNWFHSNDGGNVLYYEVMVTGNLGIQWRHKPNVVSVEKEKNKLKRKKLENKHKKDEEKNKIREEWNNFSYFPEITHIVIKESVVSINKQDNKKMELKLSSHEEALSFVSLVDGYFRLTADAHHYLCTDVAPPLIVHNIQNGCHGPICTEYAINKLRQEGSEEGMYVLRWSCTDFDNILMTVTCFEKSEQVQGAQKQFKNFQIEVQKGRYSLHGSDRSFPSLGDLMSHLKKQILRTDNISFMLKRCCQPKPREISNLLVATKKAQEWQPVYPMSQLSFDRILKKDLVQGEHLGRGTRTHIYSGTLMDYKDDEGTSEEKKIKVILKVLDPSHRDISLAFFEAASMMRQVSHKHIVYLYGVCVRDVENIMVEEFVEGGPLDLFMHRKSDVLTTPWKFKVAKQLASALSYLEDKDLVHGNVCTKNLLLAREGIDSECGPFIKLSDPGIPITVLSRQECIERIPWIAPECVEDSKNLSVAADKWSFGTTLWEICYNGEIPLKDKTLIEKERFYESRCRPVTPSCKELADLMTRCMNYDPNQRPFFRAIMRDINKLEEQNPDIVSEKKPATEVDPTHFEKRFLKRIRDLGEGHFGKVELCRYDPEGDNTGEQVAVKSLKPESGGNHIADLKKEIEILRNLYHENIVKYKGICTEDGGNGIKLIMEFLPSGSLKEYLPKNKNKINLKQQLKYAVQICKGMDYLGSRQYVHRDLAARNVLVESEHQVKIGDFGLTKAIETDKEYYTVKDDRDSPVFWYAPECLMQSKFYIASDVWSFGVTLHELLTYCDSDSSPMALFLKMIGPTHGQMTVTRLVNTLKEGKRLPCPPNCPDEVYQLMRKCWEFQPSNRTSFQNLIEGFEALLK

C=CC(=O)N1CC(COc2cc(-c3ccc(O)c(Cl)c3)cn3cncc23)C1 [Example 12, 1-(3-(((6-(3-chloro-4-hydroxyphenyl)imidazo[1,5-a]pyridin-8-yl)oxy)methyl)azetidin-1-yl)prop-2-en-1-one]
JAK 1 (pKi) (JAK1): E (E represents a pKi value of 7 or below (Ki of 100 nM or above))
IC50 [1]: < 1000 nM
Kp [2]: > 200
Caco Kp 10^−6 cm/sec (Caco-2 cell monolayers): A (A represents a value below 5×10^−6 cm/sec)

C=CC(=O)N1CC(COc2cc(-c3cc(F)c(O)cc3CC)cn3cncc23)C1 [Example 13, 1-(3-(((6-(2-ethyl-5-fluoro-4-hydroxyphenyl)imidazo[1,5-a]pyridin-8-yl)oxy)methyl)azetidin-1-yl)prop-2-en-1-one]
JAK 1 (pKi) (JAK1): E (E represents a pKi value of 7 or below (Ki of 100 nM or above))
IC50 [1]: < 1000 nM
Kp [2]: > 200
Caco Kp 10^−6 cm/sec (Caco-2 cell monolayers): A (A represents a value below 5×10^−6 cm/sec)
